Assay results as given in article PMC12221116, “Novel Quinazolinones Active against Multidrug‐Resistant Mycobacterium Tuberculosis: Synthesis, Antimicrobial Evaluation, and in Silico Exploration of Penicillin‐Binding Protein 1A as a Potential Target” (Chemmedchem, 2025).
≈ marks a conversion by molar mass, not a printed value. Read-outs that look alike come from different tables or passages of the source.

What was measured:
M. aurum = experiment: Microdilution broth resazurin assay, MIC; assay type: cell-based, Mycolicibacterium aurum
M. avium = experiment: Microdilution broth resazurin assay, MIC; assay type: cell-based, Mycobacterium avium
M. kansasii = experiment: Microplate Alamar Blue assay, MIC; assay type: cell-based, Mycobacterium kansasii; conditions: for MIC: Mycobacterium kansasii, read-out: Antimycobacterial Activity MIC M. kans.
Mtb H37Rv = experiment: Microplate Alamar Blue assay, MIC; assay type: cell-based, Mycobacterium tuberculosis; conditions: for MIC: Mycobacterium tuberculosis, H37RV
Mtb H37Ra = experiment: Microdilution broth resazurin assay, MIC; assay type: cell-based, Mycobacterium tuberculosis
M. smegmatis = experiment: Microdilution broth resazurin assay, MIC; assay type: cell-based, Mycolicibacterium smegmatis
MRC-5 = experiment: cells; conditions: Homo sapiens
HepG2 = experiment: cells; conditions: Homo sapiens
[1] = Mycolicibacterium aurum; read-out: Antimycobacterial Activity MIC M. aurum
[2] = Table S5 matching pairs series A and B
[3] = Mycobacterium avium; read-out: Antimycobacterial Activity MIC M. avium
[4] = Microplate Alamar Blue assay, read-out: Antimycobacterial Activity MIC Mtb H37Rv
[5] = read-out: Antimycobacterial Activity MIC Mtb H37Rv, Table S5 matching pairs series A and B
[6] = Mycobacterium tuberculosis, H37RA, read-out: Antimycobacterial Activity MIC Mtb H37Ra
[7] = Mycolicibacterium smegmatis; read-out: Antimycobacterial Activity MIC M. smeg.
[8] = Mycolicibacterium aurum, read-out: Antimycobacterial Activity MIC M. aurum
[9] = Mycobacterium avium, read-out: Antimycobacterial Activity MIC M. avium
[10] = Mycobacterium tuberculosis, H37RA; read-out: Antimycobacterial Activity MIC Mtb H37Ra
[11] = Mycolicibacterium smegmatis, read-out: Antimycobacterial Activity MIC M. smeg.

Row | Structure (SMILES) | MIC (M. kansasii) | MIC (Mtb H37Rv; [4]) | MIC (Mtb H37Rv; [5]) | Antimycobacterial Activity MIC Mtb H37Ra (Mtb H37Ra) | MIC (Mtb H37Ra; [6]) | Antimycobacterial Activity MIC M. smeg. (M. smegmatis; [2]) | MIC (M. aurum; [8]) | MIC (M. avium; [9]) | MIC (Mtb H37Ra; [10]) | MIC (M. smegmatis; [11]) | also measured
1 | CC1Nc2ccccc2C(=O)N1Cc1ccc(Cl)c(Cl)c1 (stereo not shown) [Compound 11] | > 100 µg/mL | > 100 µg/mL | > 100 µg/mL | ≥250 µg/mL | ≥ 250 µg/mL | ≥ 250 µg/mL |  |  |  |  | MIC (M. aurum; [1]): ≥ 250 µg/mL; Antimycobacterial Activity MIC M. aurum (M. aurum; [2]): ≥ 250 µg/mL; MIC (M. avium; [3]): ≥ 250 µg/mL; Antimycobacterial Activity MIC M. avium (M. avium; [2]): ≥ 250 µg/mL; MIC (M. smegmatis; [7]): ≥ 250 µg/mL
2 | Cc1nc2cc(Cl)ccc2c(=O)n1/N=C/c1ccccc1O [Compound 35] | > 50 µg/mL | > 50 µg/mL |  |  |  |  | ≥ 31.2 µg/mL | ≥ 31.2 µg/mL | ≥ 31.2 µg/mL | ≥ 31.2 µg/mL | 
3 | Cc1nc2cc(Cl)ccc2c(=O)n1Cc1ccc(C(F)(F)F)cc1 [Compound 22] | 25 µg/mL (≈ 70.9 µM) | > 100 µg/mL | > 100 µg/mL | 31.25 µg/mL | 31.2 µg/mL (≈ 88.6 µM) | ≥ 500 µg/mL |  |  |  |  | MIC (M. aurum; [1]): ≥ 500 µg/mL; Antimycobacterial Activity MIC M. aurum (M. aurum; [2]): ≥ 500 µg/mL; MIC (M. avium; [3]): ≥ 500 µg/mL; Antimycobacterial Activity MIC M. avium (M. avium; [2]): ≥ 500 µg/mL; Antimycobacterial Activity MIC M. kans. (M. kansasii; [2]): 25 µg/mL; MIC (M. smegmatis; [7]): ≥ 500 µg/mL
4 | Cc1nc2cc(Cl)ccc2c(=O)n1/N=C/c1ccc(O)cc1O [Compound 33] | > 100 µg/mL | > 100 µg/mL |  |  |  |  | ≥ 62.5 µg/mL | ≥ 62.5 µg/mL | ≥ 62.5 µg/mL | ≥ 62.5 µg/mL | 
5 | Cc1nc2cc(Cl)ccc2c(=O)n1/N=C/c1ccc(Cl)cc1 [Compound 51] | > 25 µg/mL | > 25 µg/mL |  |  |  |  | ≥ 15.6 µg/mL | ≥ 15.6 µg/mL | ≥ 15.6 µg/mL | ≥ 15.6 µg/mL | 
6 | Cc1nc2cc(Cl)ccc2c(=O)n1/N=C/c1ccccn1 [Compound 29] | > 25 µg/mL | > 25 µg/mL |  |  |  |  | ≥ 31.2 µg/mL | ≥ 31.2 µg/mL | ≥ 31.2 µg/mL | ≥ 31.2 µg/mL | 
7 | Cc1nc2ccccc2c(=O)n1Cc1ccc2ccccc2c1 [Compound 8] | 50 µg/mL (≈ 166 µM) | > 100 µg/mL | > 100 µg/mL | ≥250 µg/mL | ≥ 250 µg/mL | ≥ 500 µg/mL | 62.5 µg/mL (≈ 208 µM) | 62.5 µg/mL (≈ 208 µM) |  |  | Antimycobacterial Activity MIC M. aurum (M. aurum): 62.5 µg/mL; Antimycobacterial Activity MIC M. avium (M. avium): 62.5 µg/mL; Antimycobacterial Activity MIC M. kans. (M. kansasii; [2]): 50 µg/mL; MIC (M. smegmatis; [7]): ≥ 500 µg/mL
8 | Cc1nc2cc(Cl)ccc2c(=O)n1Cc1ccc(Cl)c(Cl)c1 [Compound 24] | 25 µg/mL (≈ 70.7 µM) | 50 µg/mL (≈ 141 µM) | > 100 µg/mL | 15.625 µg/mL | 15.6 µg/mL (≈ 44.2 µM) |  | ≥ 125 µg/mL | ≥ 125 µg/mL |  | ≥ 125 µg/mL | IC50 (MRC-5; MRC5, 24 h, read-out: IC50 for MRC-5 [24 h]): > 50 µM; IC50 (MRC-5; MRC5, 72 h, read-out: IC50 for MRC-5 [72 h]): > 50 µM; Antimycobacterial Activity MIC M. aurum (M. aurum): ≥125 µg/mL; Antimycobacterial Activity MIC M. avium (M. avium): ≥125 µg/mL; Antimycobacterial Activity MIC M. kans. (M. kansasii; [2]): 25 µg/mL; Antimycobacterial Activity MIC M. smeg. (M. smegmatis): ≥125 µg/mL; IC50 (HepG2; HepG2, 24 h, read-out: IC50 for HepG2 [24 h]): > 50 µM; IC50 (HepG2; HepG2, 72 h, read-out: IC50 for HepG2 [72 h]): > 50 µM
9 | Cc1cccc(/C=N/n2c(C)nc3cc(Cl)ccc3c2=O)c1 [Compound 47] | > 25 µg/mL | > 25 µg/mL |  |  |  |  | ≥ 31.2 µg/mL | ≥ 31.2 µg/mL | ≥ 31.2 µg/mL | ≥ 31.2 µg/mL | 
10 | COc1ccccc1/C=N/n1c(C)nc2cc(Cl)ccc2c1=O [Compound 38] | > 25 µg/mL | > 25 µg/mL |  |  |  |  | ≥ 62.5 µg/mL | ≥ 62.5 µg/mL | ≥ 62.5 µg/mL | ≥ 62.5 µg/mL | 
11 | Cc1nc2cc(Cl)ccc2c(=O)n1/N=C/c1ccc(N(C)C)cc1 [Compound 45] | > 25 µg/mL | > 25 µg/mL |  |  |  |  | ≥ 15.6 µg/mL | ≥ 15.6 µg/mL | ≥ 15.6 µg/mL | ≥ 15.6 µg/mL | 
12 | Cc1nc2cc(Cl)ccc2c(=O)n1Cc1cccc(C(=O)O)c1 [Compound 12] | > 100 µg/mL | > 100 µg/mL |  |  |  |  | ≥ 62.5 µg/mL | ≥ 62.5 µg/mL | ≥ 62.5 µg/mL | ≥ 62.5 µg/mL | 
13 | COc1ccc(Cn2c(C)nc3ccccc3c2=O)c(OC)c1 [Compound 1] |  |  |  | ≥500 µg/mL |  | ≥ 500 µg/mL |  |  |  |  | Antimycobacterial Activity MIC M. aurum (M. aurum): ≥500 µg/mL; Antimycobacterial Activity MIC M. aurum (M. aurum; [2]): ≥ 500 µg/mL; Antimycobacterial Activity MIC M. avium (M. avium): ≥500 µg/mL; Antimycobacterial Activity MIC M. avium (M. avium; [2]): ≥ 500 µg/mL; Antimycobacterial Activity MIC M. kans. (M. kansasii): >100 µg/mL; Antimycobacterial Activity MIC Mtb H37Rv (Mtb H37Rv; Microplate Alamar Blue assay): >100 µg/mL; Antimycobacterial Activity MIC Mtb H37Ra (Mtb H37Ra; [2]): ≥ 500 µg/mL; Antimycobacterial Activity MIC M. smeg. (M. smegmatis): ≥500 µg/mL
